# From US6737383B1, “Herbicidal oxadiazolidines” (priority 1999, dated 2004)
# How the values were obtained:
# bedstraw = assay: Test B pre/postemergence bedstraw; type: in vivo, Galium aparine; conditions: Postemergence
# Method in brief: (§1)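 Herbicidal effect was estimated by eye on a ten-point control scale after plants spent twelve to sixteen days in a greenhouse following soil or foliar treatment. Foliar sprays targeted plants at one to four leaves; all doses were formulated in a non-phytotoxic solvent with surfactant.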
# blackgrass = assay: Test B pre/postemergence blackgrass; type: in vivo, Alopecurus myosuroides
# Method in brief: as §1
# surinam grass = assay: Test B pre/postemergence surinam grass; type: in vivo, Brachiaria decumbens
# Method in brief: as §1
# cocklebur = assay: Test B pre/postemergence cocklebur; type: in vivo, Xanthium strumarium
# Method in brief: as §1
# corn = assay: Test B pre/postemergence corn; type: in vivo, Zea mays
# Method in brief: as §1
# crabgrass = assay: Test B pre/postemergence crabgrass; type: in vivo, Digitaria sanguinalis
# Method in brief: as §1
# giant foxtail = assay: Test B pre/postemergence giant foxtail; type: in vivo, Setaria faberii
# Method in brief: as §1
# morningglory = assay: Test B pre/postemergence morningglory; type: in vivo, Ipomoea hederacea
# Method in brief: as §1
# pigweed = assay: Test B pre/postemergence pigweed; type: in vivo, Amaranthus retroflexus
# Method in brief: as §1
# rape = assay: Test B pre/postemergence rape; type: in vivo, Brassica napus
# Method in brief: as §1
# soybean = assay: Test B pre/postemergence soybean; type: in vivo, Glycine max
# Method in brief: as §1
# sugar beet = assay: Test B pre/postemergence sugar beet; type: in vivo, Beta vulgaris
# Method in brief: as §1
# velvetleaf = assay: Test B pre/postemergence velvetleaf; type: in vivo, Abutilon theophrasti
# Method in brief: as §1
# wheat = assay: Test B pre/postemergence wheat; type: in vivo, Triticum aestivum
# Method in brief: as §1
# wild oat = assay: Test B pre/postemergence wild oat; type: in vivo, Avena fatua
# Method in brief: as §1
# purple nutsedge = assay: Test B pre/postemergence purple nutsedge; type: in vivo, Cyperus rotundus
# Method in brief: as §1
# rice = assay: Test B flood test rice; type: in vivo, Oryza sativa
# Method in brief: (§2)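 Flood test on plants grown to the 2-leaf stage; treated plants kept in greenhouse twelve to sixteen days, then visually rated against controls on a 0 (no effect) to 10 (complete control) scale.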
# smallflower flatsedge = assay: Test B flood test smallflower flatsedge; type: in vivo, Cyperus difformis
# Method in brief: as §2
# duck salad = assay: Test B flood test duck salad; type: in vivo, Heteranthera limosa
# Method in brief: as §2
# bamyardgrass = assay: Test B flood test barnyardgrass; type: in vivo, Echinochloa crus-galli
# Method in brief: as §2
# [1] = Postemergence, Rate 250 g/ha, scale 0 to 10, 0 is no effect, 10 is complete control
# [2] = Postemergence, Rate 500 g/ha, scale of 0 to 10 where 0 is no effect and 10 is complete control
# [3] = Preemergence, Rate 62 g/ha, scale 0 to 10 (0 no effect, 10 complete control)
# [4] = Preemergence, Rate 125 g/ha, scale of 0 to 10 where 0 is no effect and 10 is complete control
# [5] = Preemergence, Rate 250 g/ha, scale of 0 to 10 where 0 is no effect and 10 is complete control
# [6] = Preemergence, Rate 500 g/ha, scale 0 to 10, 0 is no effect, 10 is complete control
# [7] = Postemergence, Rate 125 g/ha, scale 0 to 10, 0 is no effect, 10 is complete control
# [8] = Rate 62 g/ha, Postemergence, scale of 0 to 10 where 0 is no effect and 10 is complete control
# [9] = Preemergence, Rate 250 g/ha, scale 0 to 10, 0 is no effect, 10 is complete control
# [10] = Rate 62 g/ha, flood test species, Pre-emergence, visual evaluation after twelve to sixteen days
# [11] = Rate 125 g/ha, under heading Pre-emergence, flood test species, visual evaluation after twelve to sixteen days
# [12] = Rate 250 g/ha, Pre-emergence, flood-test species, scale 0 to 10, 0 is no effect, 10 is complete control
# [13] = Rate 500 g/ha, Pre-emergence, flood test species, scale 0 to 10 (0 no effect, 10 complete control)
structure (smiles),measurement,setting,value
CC(C)N(C(=O)n1oc(=O)n(C(C)CCl)c1=O)c1ccccc1 (centres unmarked) [Compound 411],"Plant response rating, Bedstraw","bedstraw; Rate 250 g/ha, scale 0 to 10, 0 is no effect, 10 is complete control",7
same,Bedstraw plant response rating,"bedstraw; Rate 500 g/ha, scale of 0 to 10 where 0 is no effect and 10 is complete control",8
same,"Plant response rating, Blackgrass",blackgrass; [1],9
same,Blackgrass plant response rating,blackgrass; [2],9
same,"Plant response rating, Blackgrass",blackgrass; [3],6
same,"Plant response rating, Blackgrass",blackgrass; [4],7
same,Blackgrass plant response rating,blackgrass; [5],9
same,Blackgrass plant response rating,blackgrass; [6],10
same,"Plant response rating, B. signalgrass",surinam grass; [7],3
same,"Plant response rating, B. signalgrass",surinam grass; [1],5
same,B. signalgrass plant response rating,surinam grass; [2],9
same,"Plant response rating, B. signalgrass",surinam grass; [3],0
same,"Plant response rating, B. signalgrass",surinam grass; [4],3
same,B. signalgrass plant response rating,surinam grass; [5],7
same,B. signalgrass plant response rating,"surinam grass; Preemergence, Rate 500 g/ha, scale of 0 to 10 where 0 is no effect and 10 is complete control",10
same,B. signalgrass plant response rating,surinam grass; [8],0
same,"Plant response rating, Cocklebur",cocklebur; [7],1
same,"Plant response rating, Cocklebur",cocklebur; [1],3
same,Cocklebur plant response rating,cocklebur; [2],3
same,"Plant response rating, Cocklebur",cocklebur; [3],0
same,"Plant response rating, Cocklebur",cocklebur; [4],0
same,Cocklebur plant response rating,cocklebur; [9],0
same,Cocklebur plant response rating,cocklebur; [6],0
same,Cocklebur plant response rating,cocklebur; [8],1
same,"Plant response rating, Corn",corn; [7],0
same,"Plant response rating, Corn",corn; [1],0
same,Corn plant response rating,corn; [2],4
same,"Plant response rating, Corn",corn; [3],0
same,"Plant response rating, Corn",corn; [4],2
same,Corn plant response rating,corn; [9],8
same,Corn plant response rating,corn; [6],9
same,Corn plant response rating,corn; [8],0
same,"Plant response rating, Crabgrass",crabgrass; [7],4
same,"Plant response rating, Crabgrass",crabgrass; [1],8
same,Crabgrass plant response rating,crabgrass; [2],8
same,"Plant response rating, Crabgrass",crabgrass; [3],9
same,"Plant response rating, Crabgrass",crabgrass; [4],10
same,Crabgrass plant response rating,crabgrass; [9],10
same,Crabgrass plant response rating,crabgrass; [6],10
same,Crabgrass plant response rating,crabgrass; [8],4
same,"Plant response rating, Giant foxtail",giant foxtail; [7],9
same,"Plant response rating, Giant foxtail",giant foxtail; [1],9
same,Giant foxtail plant response rating,giant foxtail; [2],9
same,"Plant response rating, Giant foxtail",giant foxtail; [3],10
same,"Plant response rating, Giant foxtail",giant foxtail; [4],10
same,Giant foxtail plant response rating,giant foxtail; [9],10
same,Giant foxtail plant response rating,giant foxtail; [6],10
same,Giant foxtail plant response rating,giant foxtail; [8],6
same,"Plant response rating, Morningglory",morningglory; [1],6
same,Morningglory plant response rating,morningglory; [2],6
same,"Plant response rating, Morningglory",morningglory; [3],0
same,"Plant response rating, Morningglory",morningglory; [4],1
same,Morningglory plant response rating,morningglory; [9],2
same,Morningglory plant response rating,morningglory; [6],4
same,"Plant response rating, Redroot pigweed",pigweed; [1],7
same,Redroot pigweed plant response rating,pigweed; [2],9
same,"Plant response rating, Redroot pigweed",pigweed; [3],3
same,"Plant response rating, Redroot pigweed",pigweed; [4],8
same,Redroot pigweed plant response rating,pigweed; [9],10
same,Redroot pigweed plant response rating,pigweed; [6],10
same,"Plant response rating, Rape",rape; [1],7
same,Rape plant response rating,rape; [2],8
same,"Plant response rating, Rape",rape; [3],2
same,"Plant response rating, Rape",rape; [4],8
same,Rape plant response rating,rape; [9],9
same,Rape plant response rating,rape; [6],10
same,"Plant response rating, Soybean",soybean; [1],5
same,Soybean plant response rating,soybean; [2],7
same,"Plant response rating, Soybean",soybean; [3],0
same,"Plant response rating, Soybean",soybean; [4],0
same,Soybean plant response rating,soybean; [9],0
same,Soybean plant response rating,soybean; [6],1
same,"Plant response rating, Sugarbeets",sugar beet; [1],4
same,Sugarbeets plant response rating,sugar beet; [2],7
same,"Plant response rating, Sugarbeets",sugar beet; [3],5
same,"Plant response rating, Sugarbeets",sugar beet; [4],8
same,Sugarbeets plant response rating,sugar beet; [9],8
same,Sugarbeets plant response rating,sugar beet; [6],8
same,"Plant response rating, Velvetleaf",velvetleaf; [1],4
same,Velvetleaf plant response rating,velvetleaf; [2],6
same,"Plant response rating, Velvetleaf",velvetleaf; [3],2
same,"Plant response rating, Velvetleaf",velvetleaf; [4],5
same,Velvetleaf plant response rating,velvetleaf; [9],6
same,Velvetleaf plant response rating,velvetleaf; [6],8
same,Wheat plant response rating,wheat; [2],8
same,"Plant response rating, Wheat",wheat; [3],0
same,"Plant response rating, Wheat",wheat; [4],4
same,Wheat plant response rating,wheat; [9],7
same,Wheat plant response rating,wheat; [6],10
same,Wild oats plant response rating,wild oat; [2],9
same,"Plant response rating, Wild oats",wild oat; [3],0
same,"Plant response rating, Wild oats",wild oat; [4],5
same,Wild oats plant response rating,wild oat; [9],8
same,Wild oats plant response rating,wild oat; [6],10
same,"Plant response rating, Nutsedge",purple nutsedge; [1],0
same,Nutsedge plant response rating,purple nutsedge; [2],0
same,"Plant response rating, Nutsedge",purple nutsedge; [3],0
same,"Plant response rating, Nutsedge",purple nutsedge; [4],0
same,Nutsedge plant response rating,purple nutsedge; [9],0
same,Nutsedge plant response rating,purple nutsedge; [6],2
same,"Plant response rating, Rice (0 to 10 scale, 0 is no effect, 10 is complete control)",rice; [10],0
same,"Rice plant response rating (0 to 10 scale, 0 is no effect, 10 is complete control)",rice; [11],0
same,Rice plant response rating,rice; [12],0
same,Rice plant response rating,rice; [13],0
same,"Plant response rating, S. Flatsedge (0 to 10 scale, 0 is no effect, 10 is complete control)",smallflower flatsedge; [10],0
same,"S. Flatsedge plant response rating (0 to 10 scale, 0 is no effect, 10 is complete control)",smallflower flatsedge; [11],0
same,S. Flatsedge plant response rating,smallflower flatsedge; [12],9
same,S. Flatsedge plant response rating,smallflower flatsedge; [13],9
same,"Plant response rating, Ducksalad (0 to 10 scale, 0 is no effect, 10 is complete control)",duck salad; [10],0
same,"Ducksalad plant response rating (0 to 10 scale, 0 is no effect, 10 is complete control)",duck salad; [11],0
same,Ducksalad plant response rating,duck salad; [12],2
same,Ducksalad plant response rating,duck salad; [13],2
same,"Plant response rating, Barnyardgrass (0 to 10 scale, 0 is no effect, 10 is complete control)",bamyardgrass; [10],0
same,"Barnyardgrass plant response rating (0 to 10 scale, 0 is no effect, 10 is complete control)",bamyardgrass; [11],8
same,Barnyardgrass plant response rating,bamyardgrass; [12],9
same,Barnyardgrass plant response rating,bamyardgrass; [13],9
